Source: PubChem BioAssay (NCI)
“And” between values parts separate entries of the source, which are not always exact repeats. Equal values may be shown once.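 Where inhibition never reached the appropriate level, the endpoint shown equals the highest concentration tested. Otherwise, values were interpolated linearly from a five-concentration, 48-hour dose response in 96-well plates. Abbreviation: GI50, concentration required for 50% inhibition of growth. TGI is the concentration that stops growth completely.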

Assays:
Assay in all cases: NCI tumour cell line growth inhibition, 48 h
M14 melanoma = test system: M14 melanoma
U251 CNS = test system: U251 CNS
HS 578T breast = test system: HS 578T breast
NCI/ADR-RES ovarian = test system: NCI/ADR-RES ovarian
OVCAR-8 ovarian = test system: OVCAR-8 ovarian
SN12C renal = test system: SN12C renal
MDA-MB-231 breast = test system: MDA-MB-231 breast
HCT-15 colon = test system: HCT-15 colon
EKVX NSCLC = test system: EKVX NSCLC
MALME-3M melanoma = test system: MALME-3M melanoma
TK-10 renal = test system: TK-10 renal
SK-MEL-2 melanoma = test system: SK-MEL-2 melanoma

Row | SMILES | TGI (M14 melanoma) | TGI (U251 CNS) | TGI (HS 578T breast) | TGI (NCI/ADR-RES ovarian) [µM] | TGI (OVCAR-8 ovarian) [µM] | TGI (SN12C renal) | TGI (MDA-MB-231 breast) | TGI (HCT-15 colon) [µM] | TGI (EKVX NSCLC) | TGI (MALME-3M melanoma) | TGI (TK-10 renal) [µM] | TGI (SK-MEL-2 melanoma) | GI50 (M14 melanoma) | GI50 (EKVX NSCLC) | GI50 (TK-10 renal) | GI50 (SK-MEL-2 melanoma) | GI50 (MALME-3M melanoma) [µM]
1 | CCCSc1ccc2[nH]c(N3C(=O)/C(=C/c4ccc(SC)cc4)N=C3c3ccccc3)cc2c1 | > 50 µM | > 50 µM | > 50 µM | > 50 | > 50 | > 50 µM | > 50 µM | > 50 | > 50 µM | > 50 µM | > 50 | > 38.5 µM | – | – | – | – | –
2 | Cc1ccc(C)n2c1nc1ccccc12 | > 100 µM | > 100 µM | > 100 µM | > 100 | > 100 | > 100 µM | – | > 100 | > 100 µM | > 100 µM | > 100 | – | – | – | – | – | –
3 | COc1cccc(C2c3cc4c(cc3OC(NNS(=O)(=O)c3ccc(C)cc3)C2C)OCO4)c1OC (stereo not given) | > 100 µM | 16.9 µM | 21.1 µM | – | > 100 | 35.3 µM | 27.6 µM | 9.82 | > 100 µM | 49.9 µM | 49.8 | 7.18 µM | – | – | – | – | –
4 | Fc1ccc2c3c([nH]c2c1)CCN(Cc1ccccc1)C3 | 34.5 µM | 37.1 µM | 30.8 µM | 71 | 39.6 | 35.4 µM | 43.8 µM | 36.5 | 48.7 µM | 35 µM | – | – | – | – | – | – | –
5 | CCOC(=O)/C=C(/C(=O)OCC)n1ccc(=O)n(Cc2cnnn2COCCOC(C)=O)c1=O | 38.8 µM | 37.8 µM | 56.7 µM | 61.9 | 30.6 | 47.9 µM | 38.7 µM | 31 | 33.8 µM | 26.3 µM | 22.2 | 41.9 µM | – | – | – | – | –
6 | CC(C)=CCC[C@@H](C)C1=C(O)C(Nc2ccccc2Cl)=C(C)C(=O)C1=O | > 59.9 µM | > 75 µM | > 69.9 µM | 11.9 | > 41 | > 75 µM | > 70.8 µM | > 75 | > 75 µM | 29.3 µM | > 75 | 46.7 µM | – | – | – | – | –
7 | C=C(C(=O)OC)[C@@H]1C[C@@H](OC(C)=O)C2=C[C@H](C[C@@]3(C)O[C@@H]3C3=CC(C)=C(O3)[C@H]1OC(C)=O)OC2=O | 43.2 µM | 71.1 µM | – | > 100 | > 100 | 56.8 µM | 44.1 µM | > 100 | 38.9 µM | 30.7 µM | 31.7 | > 100 µM | – | – | – | – | –
8 | CCOC(=O)c1nc2ccc(C(F)(F)F)cc2nc1NCc1ccc(OC)c(OC)c1 | > 100 µM | > 100 µM | > 100 µM | > 100 | > 100 | – | > 100 µM | > 100 | > 100 µM | > 100 µM | > 100 | 86.1 µM | – | – | – | – | –
9 | COc1ccc(COC(=O)NCC(=O)NC(C)C(=O)NC(Cc2ccccc2)C(=O)OCc2ccccc2)cc1 (stereo not given) | 31.8 µM and > 100 µM | 44.3 µM and 47.3 µM | 70.3 µM and 63.9 µM | > 100 | > 100 | > 100 µM and 51.9 µM | 46.2 µM and 68.3 µM | > 100 | 56.6 µM and > 100 µM | 37.6 µM and 92.3 µM | > 100 | 83.3 µM and > 100 µM | 18 µM and 37.5 µM | 23.4 µM and 48.7 µM | 39.5 µM and > 100 µM | 35.5 µM and > 100 µM | –
10 | CCC(C)[C@@H](Nc1c(O)c2c(c(O)c1Cl)C(=O)C=CC2=O)C(=O)OC (stereo not given in full) | 9.41 µM | 8.83 µM | > 10 µM | > 10 | > 10 | > 10 µM | 7.81 µM | > 10 | > 10 µM | 5.14 µM | > 10 | > 10 µM | – | – | – | – | –
11 | COc1cc2c(c(OC)c1OC)-c1ccc(SC)c(=O)cc1[C@@H](O)CC2 | – | – | – | 0.302 | – | > 100 µM | – | – | – | – | > 100 | – | – | > 100 µM | > 100 µM | – | 0.028
12 | CCCCc1ccc(Nc2nc(OC)c3ncn(C4CC(O)C(CO)O4)c3n2)cc1 (stereo not given) | 85.6 µM | 40 µM | 42 µM | 65.6 | 35.2 | 26.5 µM | 38 µM | 34.3 | 6.08 µM | 42.7 µM | 50.1 | 47.5 µM | – | – | – | – | –
13 | CCOP(=O)(OCC)C(NC(=O)C(C(F)(F)F)C(F)(F)F)c1ccccc1 (stereo not given) | > 100 µM | > 100 µM | > 100 µM | > 100 | > 100 | > 100 µM | > 100 µM | > 100 | > 100 µM | > 100 µM | > 100 | > 100 µM | – | – | – | – | –
14 | Cc1cccc2sc(-c3ccc(O)cc3)nc12 | 28.5 µM | 39.1 µM | – | 38.9 | 31.8 | 34.3 µM | 38.7 µM | 26 | 16.8 µM | 32.8 µM | 42.1 | 33.7 µM | – | – | – | – | –
15 | CC(=O)c1ccc2c(c1)CC1(C2)Cc2cc3c(c(C(=O)O)c2C1)CCC3 (stereo not given) | – | > 100 µM | > 100 µM | > 100 | > 100 | > 100 µM | > 100 µM | > 100 | > 100 µM | > 100 µM | > 100 | – | – | – | – | – | –
16 | O=C(NNC(=S)NC1CCCCC1)C12CC3CC(CC(C3)C1)C2 | > 100 µM | > 100 µM | > 100 µM | > 100 | > 100 | > 100 µM | > 100 µM | > 100 | – | > 100 µM | > 100 | > 100 µM | – | – | – | – | –
17 | N[C@@H]1CCN(c2c(F)cc3c(=O)c(C(=O)O)cn4c3c2Oc2cc3c(ccc5ccccc53)cc2-4)C1 | > 100 µM | 5.04 µM | > 100 µM | > 100 | 18.1 | > 100 µM | > 100 µM | > 100 | – | 23 µM | – | > 78 µM | – | – | – | – | –
18 | O=C1NN(Cc2ccccc2)C(=O)N2CCC[C@@H]12 | > 100 µM | – | > 100 µM | > 100 | > 100 | > 100 µM | > 100 µM | > 100 | > 100 µM | > 100 µM | > 100 | > 100 µM | – | – | – | – | –
